Source: PMC4176390 (Journal of Natural Products, 2014)

Assays:
brevenal binding site [1] = experiment: Fluorescent-ligand competition; design: species or system rat; conditions: for displacement of BODIPY FL-brevenal from synaptosomes (in words): BODIPY FL-brevenal 10 nM, competitors 1 pM to 10 μM
sheep = conditions: cited from earlier work
brevenal binding site [2] = experiment: Radioligand; conditions: read-out: Ki: radioligand assay; [3H]-brevenol, rat brain synaptosomes, mean ± SEM
[3] = test system: voltage-sensitive sodium channels (VSSCs); conditions: cited from earlier work
fish = conditions: cited from earlier work
VSSCs = conditions: cited from earlier work

CCN1C[C@]2(COC)[C@H](O)C[C@H](OC)[C@@]34[C@@H]5C[C@@]6(O)[C@H](OC(=O)c7ccccc7)[C@@H]5[C@@](OC(C)=O)([C@@H]([C@H](OC)[C@H]23)[C@@H]14)[C@@H](O)[C@@H]6OC [aconitine]
displacement of BODIPY FL-brevenal from synaptosomes (in words) (brevenal binding site [1]): none of these ligands were able to displace

C=C/C=C\CC[C@H]1O[C@H]2CC[C@@]3(C)O[C@H]4[C@@H](O)C[C@@]5(C)O[C@@H](CC/C=C(C)/C(C)=C/C=O)[C@@H](C)C[C@H]5O[C@@H]4C[C@@H]3O[C@@H]2CC[C@@]1(C)O [brevenal]
mucociliary transport in sheep (sheep): increases mucociliary transport
Ki (brevenal binding site [2]): 149 ± 30 nM
displacement of tritiated PbTx from synaptosomes [3]: competitively displace
toxicity to fish (fish): nontoxic at micromolar concentrations
effect on VSSCs in patch-clamp experiments (VSSCs): does not appear to have any effect
displacement of BODIPY FL-brevenal from synaptosomes (in words) (brevenal binding site [1]): competed for binding to synaptosomes
Ki (brevenal binding site [1]; read-out: Ki: fluorescent-ligand assay, BODIPY FL-brevenal 10 nM as ligand, rat brain synaptosomes, mean ± SEM): 170 ± 31 nM

CC1(C)[C@H](C(=O)O[C@H](C#N)c2cccc(Oc3ccccc3)c2)[C@@H]1C=C(Br)Br [deltamethrin]
displacement of BODIPY FL-brevenal from synaptosomes (in words) (brevenal binding site [1]): none of these ligands were able to displace

COc1ccc(C(=O)O[C@H]2CC[C@@]3(C)[C@@H]4CC[C@H]5[C@]6(O)C[C@H](O)[C@@]7(O)[C@@H](CN8C[C@@H](C)CC[C@H]8[C@@]7(C)O)[C@]6(O)C[C@@]53O[C@]24O)cc1OC [veratridine]
displacement of BODIPY FL-brevenal from synaptosomes (in words) (brevenal binding site [1]): none of these ligands were able to displace

PbTx-9
displacement of BODIPY FL-brevenal from synaptosomes (in words) (brevenal binding site [1]): None of the naturally occurring PbTx analogues were able to displace
